Drawing on ChEMBL document CHEMBL2331255, “Carbonic anhydrase inhibitors: benzenesulfonamides incorporating cyanoacrylamide moieties are low nanomolar/subnanomolar inhibitors of the tumor-associated isoforms IX and XII” (Bioorg Med Chem, 2013), this text covers Ki for 20 compounds.

The target in one test is Carbonic anhydrase 9 (Homo sapiens, UniProt Q16790). Description: Inhibition of human carbonic anhydrase 9 preincubated for 15 mins by CO2 hydration stopped-flow assay.
Another test addresses Carbonic anhydrase 2 (Homo sapiens, UniProt P00918). Description: Inhibition of human carbonic anhydrase 2 preincubated for 15 mins by CO2 hydration stopped-flow assay.
The next test addresses Carbonic anhydrase 12 (Homo sapiens, UniProt O43570). Description: Inhibition of human carbonic anhydrase 12 preincubated for 15 mins by CO2 hydration stopped-flow assay.
The next test concerns the target Carbonic anhydrase 1 (Homo sapiens, UniProt P00915). The test is described as follows: Inhibition of human carbonic anhydrase 1 preincubated for 15 mins by CO2 hydration stopped-flow assay.

Sequence of Carbonic anhydrase 1 (P00915 whole entry): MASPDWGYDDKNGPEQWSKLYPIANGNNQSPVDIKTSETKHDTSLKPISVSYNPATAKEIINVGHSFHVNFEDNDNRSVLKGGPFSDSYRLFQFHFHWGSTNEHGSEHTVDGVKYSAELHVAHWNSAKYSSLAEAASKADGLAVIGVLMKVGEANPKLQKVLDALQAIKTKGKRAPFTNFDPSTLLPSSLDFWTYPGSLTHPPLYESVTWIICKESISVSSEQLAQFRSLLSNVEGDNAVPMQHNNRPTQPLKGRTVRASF
Sequence of Carbonic anhydrase 12 (O43570 whole entry): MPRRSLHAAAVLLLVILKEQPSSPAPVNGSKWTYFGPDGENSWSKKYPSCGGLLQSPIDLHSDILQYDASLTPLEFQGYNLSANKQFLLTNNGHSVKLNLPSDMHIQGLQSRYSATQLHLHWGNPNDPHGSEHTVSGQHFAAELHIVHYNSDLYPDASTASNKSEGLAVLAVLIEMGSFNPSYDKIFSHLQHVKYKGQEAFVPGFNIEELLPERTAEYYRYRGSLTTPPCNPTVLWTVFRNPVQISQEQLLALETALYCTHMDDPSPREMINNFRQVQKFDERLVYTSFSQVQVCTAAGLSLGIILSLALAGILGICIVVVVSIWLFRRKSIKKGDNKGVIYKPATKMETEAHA

Turning to `N#C/C(=C\c1ccc(O)cc1)C(=O)Nc1ccc(S(N)(=O)=O)cc1`, the Ki on Carbonic anhydrase 9 came to 0.67 nM.
Same read-out and setting: next, `N=c1oc2ccccc2cc1C(=O)Nc1ccc(S(N)(=O)=O)cc1`: 12.8 nM.
In turn, `N#C/C(=C\c1cccs1)C(=O)Nc1ccc(S(N)(=O)=O)cc1` had a Ki at Carbonic anhydrase 9 of 3.7 nM.
`N#C/C(=C\C=C\c1ccccc1)C(=O)Nc1ccc(S(N)(=O)=O)cc1` returned a Ki at Carbonic anhydrase 9 of 4.9 nM.
On the same count and under the same terms, next, `COc1cc(/C=C(\C#N)C(=O)Nc2ccc(S(N)(=O)=O)cc2)ccc1O`: 5.4 nM; `N#C/C(=C\c1ccc([N+](=O)[O-])cc1)C(=O)Nc1ccc(S(N)(=O)=O)cc1`: 0.93 nM; `N#C/C(=C\c1ccc(O)c(O)c1)C(=O)Nc1ccc(S(N)(=O)=O)cc1`: 0.65 nM.
With `N#C/C(C(=O)Nc1ccc(S(N)(=O)=O)cc1)=C(\S)Nc1ccccc1`, the Ki at Carbonic anhydrase 9 was determined as 5.8 nM.
In turn, `N#CCC(=O)Nc1ccc(S(N)(=O)=O)cc1` returned a Ki on Carbonic anhydrase 9 of 5.2 nM.
At Carbonic anhydrase 9, `N#C/C(=N\Nc1ccccc1)C(=O)Nc1ccc(S(N)(=O)=O)cc1` came in with a Ki of 9.5 nM.
In the case of `COc1ccc(/C=C(\C#N)C(=O)Nc2ccc(S(N)(=O)=O)cc2)cc1OC`, the affinity on Carbonic anhydrase 9, expressed as Ki, was 21.2 nM.
In the case of `COc1cc(OC)c(OC)cc1/C=C(\C#N)C(=O)Nc1ccc(S(N)(=O)=O)cc1`, the Ki at Carbonic anhydrase 9 turned out to be 0.96 nM.
As to `N#C/C(=C\c1ccco1)C(=O)Nc1ccc(S(N)(=O)=O)cc1`, the Ki came to 5.5 nM at Carbonic anhydrase 2, 6.3 nM on Carbonic anhydrase 12, 4.3 nM at Carbonic anhydrase 9 and 6.1 nM on Carbonic anhydrase 1.
`CC(=O)C1=NN(c2ccccc2)/C(=C(\C#N)C(=O)Nc2ccc(S(N)(=O)=O)cc2)S1` showed a Ki on Carbonic anhydrase 9 of 0.33 nM.
`CN(C)c1ccc(/C=C(\C#N)C(=O)Nc2ccc(S(N)(=O)=O)cc2)cc1` returned a Ki at Carbonic anhydrase 9 of 3.4 nM.
With `N#C/C(=C\c1ccc(Cl)cc1Cl)C(=O)Nc1ccc(S(N)(=O)=O)cc1`, the affinity on Carbonic anhydrase 9, expressed as Ki, was 35.6 nM.
Take `COc1ccccc1/C=C(\C#N)C(=O)Nc1ccc(S(N)(=O)=O)cc1`: the Ki at Carbonic anhydrase 2 came to 6.9 nM; at Carbonic anhydrase 12, 0.6 nM; on Carbonic anhydrase 9, 32.6 nM; on Carbonic anhydrase 1, 71 nM.
Turning to `COc1ccc(/C=C(\C#N)C(=O)Nc2ccc(S(N)(=O)=O)cc2)cc1`, the affinity on Carbonic anhydrase 9 corresponds to a Ki of 0.86 nM.
`COc1cc(/C=C(\C#N)C(=O)Nc2ccc(S(N)(=O)=O)cc2)cc(OC)c1OC` gave a Ki at Carbonic anhydrase 9 of 20.5 nM.
`N#C/C(=C\c1ccccc1Cl)C(=O)Nc1ccc(S(N)(=O)=O)cc1` gave a Ki on Carbonic anhydrase 9 of 8.9 nM.
